Laboratory results from patent publication US8414926B1, “Nanoparticles with covalently bound surfactant for drug delivery” (University of South Florida, priority 2006, dated 2013).
Structures can show the parent of a compound that is named as a salt.

System: human dermal fibroblasts
Assay: Effect of surfactant combined with control nanoparticles on fibroblasts
Type: cell-based
Conditions: for toxicity to fibroblasts: combined with control nanoparticles, human dermal fibroblasts
Experimental: FIG. 1 is a graph showing the effect of dodecyl sulfate combined with control nanoparticles against human dermal fibroblasts.
The control nanoparticles were added to the wells as an emulsion having 5% solid content, which reduced the amount of surfactant to 0.75%; therefore, more surfactant was added to the emulsion prior to placement in the cell-containing wells in order to reach the designated amounts of surfactant being tested. […] This may be due to interactions of the surfactant with the nanoparticles, which may prohibit the surfactant from interacting with the cells.

`CCCCCCCCCCCCOS(=O)(=O)O` [dodecyl sulfate] was tested, and the toxicity to fibroblasts (1% surfactant) was “least toxic”, the toxicity to fibroblasts (9% surfactant) was “kills all of the cells” and the “toxicity to fibroblasts combined with control nanoparticles versus without control nanoparticles” value (healthy fibroblasts) was “much less toxic”.
